According to patent US8541442B2, “Indole derivatives as anticancer agents” (Janssen Pharmaceutica N.V., priority 2009, dated 2013):
Read-outs that look alike come from different tables or passages of the source.

Key:
[1] = test system: A2780 ovarian cancer cells; test: Alamar Blue cell proliferation assay, A2780; assay type: cell-based, human; settings: 4-day incubation
Experimental: The human A2780 ovarian cancer cells were a kind gift from Dr. T. C. Hamilton (Fox Chase Cancer Centre, Pennsylvania, U.S.A.). The cells were cultured in RPMI 1640 medium supplemented with 2 mM L-Glutamine, 50 μg/ml gentamicin and 10% fetal calf serum.
Potassium Phosphate Buffer 0.1 M (PPB) was made as follows: 2.72 gram KH2PO4 and 13.86 gram K2HPO4 were dissolved in 500 ml milli-Q H2O, the pH was adjusted to pH 7.4 and the volume was brought to 1 liter with milli-Q H2O; the buffer was filter sterilised and stored at room temperature. Resazurin stock solution (PPB-A) was prepared fresh by dissolving 45 mg resazurin in 15 ml PBS. 30 mM potassium ferricyanide (PPB-B) was prepared by dissolving 0.987 gram potassium ferricyanide in 100 ml PPB. 30 mM potassium ferrocyanide (PPB-C) was prepared by dissolving 1.266 gram potassium ferrocyanide in 100 ml PPB.
Mixture of PPB-A, PPB-B and PPB-C was prepared by mixing equal volumes of the respective solutions. Resazurin work solution (herein termed “Alamar Blue” solution) was prepared by diluting said mixture 20×(vol/vol) in PPB and filter sterilising; the Alamar Blue solution could be kept at 4° C. for a maximum of 2 weeks.
(§1) For experiments in 384 wells plates the cells were seeded at a density of 5×10^3 cells/ml in Falcon 384-well culture plates (Life Technologies, Merelbeke, Belgium), black with clear bottom, in 45 μl culture medium. Cells were allowed to adhere to plastic for 24 hr. The tested compound was pre-diluted (1/50 in culture medium) and 5 μl pre-diluted compound was added to the wells. Following 4-day incubation, 10 μl of the Alamar Blue solution was added to each well and the cells were further incubated for 5 hrs (A2780) at 37° C. The fluorescence intensity was measured for each well with a Fluorescence plate reader (Fluorskan, Labsystems, 540 nm excitation and 590 nm emission)
(§2) The antiproliferative activity was calculated as percentage of remaining viable cells in treated versus control (untreated cells) conditions. Within an experiment, the result for each experimental condition is the mean of 3 replicate wells. When appropriate, the experiments were repeated to establish full concentration-response curves. When appropriate, IC50-values (concentration of the drug, needed to reduce cell growth to 50% of the control) were computed using probit analysis for graded data (Finney, D. J., Probit Analyses, 2nd Ed. Chapter 10, Graded Responses, Cambridge University Press, Cambridge 1962). Herein the effects of test compounds are expressed as pIC50 (the negative log value of the IC50-value (M)) (see Table 5A).

[2] = test system: non-small cell lung cancer cell line H1299; test: Alamar Blue cell proliferation assay, H1299; assay type: cell-based; settings: H1299 cells
Experimental: as §1, §2
Compounds were also tested according to the above protocol but using other cell lines: colorectal cancer cell line HCT116, non-small cell lung cancer cell line H1299, human prostate cancer cell line DU145.

human U87 glioma tumor = test: In vivo anti tumour effects, U87 glioma xenograft; settings: U87 xenograft in NMRI Nude mice, 20 mg/kg p.o. QD for 5 days; for response vs control in vivo at 20 mg/kg: Mus musculus, U-87 MG, po
Experimental: Immuno-deficient (athymic) male NMRI Nude (Nu/Nu) mice (20-25 g obtained from Janvier, France) were used for these studies. Initial weight was approximately […]. All animals were maintained under SPF “full barrier” conditions with free access to food and water. Mice were group housed under a 12-h light:dark cycle (lights on at 06:00 h) at a temperature of 19 to 22° C. and 35 to 40% humidity in Techniplast type-3 IVC cages. Mice were fed a standard Laboratory chow. All experiments were carried out in accordance with the European Communities Council Directives (86/609/EEC) and had to be approved by the local ethical committee. For an established tumor xenograft model (tumor volume ˜200 mm^3), mice were randomized according to tumor volumes, with 5 mice per treatment group.
The human U87 glioma tumor cell line was derived from a patient. Cells were cultured at 37° C. in a humidified atmosphere (5% CO2, 95% air), in DMEM medium supplemented with 2 mM L-glutamine, 2.0 mM sodium pyruvate, 25 units/ml penicillin/25 μg/ml streptomycin and 10% fetal bovine serum. Cells were maintained as cell monolayer cultures, being passaged twice weekly at 3×10^6 cells per T175 flask using the following procedure. Briefly cells were washed with PBS (without Mg^2+, Ca^2+), before addition of trypsin-EDTA to the culture flasks. After detachment of cells the trypsin-EDTA was inactivated by addition of complete medium. Cell suspension was then transferred to 50 ml Falcon tube and centrifuged for 3 min at 1200 rpm. Medium was aspirated, with the cells being re-suspended in an appropriate volume of complete medium. The cells were counted in a haemocytometer and their viability was assessed by 0.25% trypan blue exclusion. An appropriate volume of cell suspension was then added to either a new T175 culture flask(s) or roller bottle containing fresh medium. For large scale-up growth of U87 tumor cells, an appropriate number of roller bottles were seeded with 0.5 to 1×10^7 cells 1 week prior to inoculation of mice. The medium was changed twice during this period, with the last change being the day prior to cell injection. Cells were collected as described above, with the exception that after centrifugation, the cells were re-suspended in cold (4° C.) serum-free medium. Mice were injected in the inguinal region with 1×10^7 cells total in a 200 μl volume.
Human U87 glioma cells were injected directly into the inguinal region of the male NMRI Nude mice (1×10^7 cells/200 μl/animal) on day 0 (D0). On day 7-10 (can vary due to tumor take/growth between cell batches) when tumor volume had reached an approximate average of 200 mm^3, mice were randomized according to tumor volume, with 5 mice per treatment group. Mice were then treated once daily (QD) with either vehicle (10% HP-β-CD) or vehicle containing test compound (20 mg/kg) by gavage (p.o.) administered in a volume of 10 ml/kg body weight for 5 days. Specific tumor measurements were taken on day 6 (24 hours post 5th dose) and then again on day 10. Tumor re-growth (after dosing has stopped) was monitored so that the time-to-reach a volume of 2000 mm^3 (TTR2000) can be recorded. This gives extra information on the duration of drug action on the tumor growth. In general, tumor size and body weights were measured twice weekly, with mice monitored daily for clinical signs of toxicity for the duration of the treatment. Clinical signs of toxicity included (but not limited to), persistent anorexia or dehydration, posture, moribund, lethargy, hypothermia and/or laboured respiration (according to the UKCCCR guidelines for welfare of animals in experimental neoplasia (The UKCCCR (UK Coordinating Committee on Cancer Research) guidelines for the welfare of animals in experimental neoplasia (July 1997); and Workman, P. et al. UKCCCR guideline. Br. J. Cancer. 1998, 77: 1-10). […]

Row | Structure (SMILES) | A2780 cell proliferation inhibition pIC50 [1] | H1299 cell proliferation inhibition pIC50 [2] | % T/C day 6 (human U87 glioma tumor; day 6 after start dosing) [%] | % T/C day 10 (human U87 glioma tumor; day 10 after start dosing) [%] | response vs control in vivo at 20 mg/kg (human U87 glioma tumor; 144 h, day 6 after start dosing, read-out: % T/C day 6) [%] | response vs control in vivo at 20 mg/kg (human U87 glioma tumor; 240 h, day 10 after start dosing, read-out: % T/C day 10) [%]
1 | Cc1cc(Nc2ccnc3c2CCC3O)ccc1NCCc1c[nH]c2c(C(C)(C)O)cccc12 (centres unmarked) [Compound 18] | 7.47 | 6.38 |  |  | 9 | -3
2 | Cc1cc(Nc2ccnc(CO)c2)ccc1NCCc1c[nH]c2c(C(C)(C)O)cccc12 [Compound 19] | 7.34 | 5.46 | 57 | 40 |  | 

Now from value to compound, other results behind:

Row | A2780 cell proliferation inhibition pIC50 [1] | H1299 cell proliferation inhibition pIC50 [2] | Structure (SMILES) | % T/C day 6 (human U87 glioma tumor; day 6 after start dosing) [%] | % T/C day 10 (human U87 glioma tumor; day 10 after start dosing) [%] | response vs control in vivo at 20 mg/kg (human U87 glioma tumor; 144 h, day 6 after start dosing, read-out: % T/C day 6) [%] | response vs control in vivo at 20 mg/kg (human U87 glioma tumor; 240 h, day 10 after start dosing, read-out: % T/C day 10) [%]
3 | 6.55 | 5.81 | COc1cc(Nc2ccnc3c2CCC3O)ccc1NCCc1c[nH]c2c(C(C)(C)O)cccc12 (centres unmarked) [Compound 11] | 72 | 79 |  | 
4 | 6.87 | 6.73 | COC1CCc2c(Nc3ccc(NCCc4c[nH]c5c(C(C)O)cccc45)c(C)c3)ccnc21 (centres unmarked) [Compound 16] | 63 | 64 |  | 
5 | 6.26 | 5.09 | Cc1cc(Nc2ccncc2)ccc1NCCc1c[nH]c2c(C(O)C(C)C)cccc12 (centres unmarked) [Compound 22] | 40 | 55 |  | 
